The assay concerns the target T1, 3-phosphoinositide-dependent protein kinase 1 (Homo sapiens, UniProt O15530).
T1 sequence (O15530 whole entry): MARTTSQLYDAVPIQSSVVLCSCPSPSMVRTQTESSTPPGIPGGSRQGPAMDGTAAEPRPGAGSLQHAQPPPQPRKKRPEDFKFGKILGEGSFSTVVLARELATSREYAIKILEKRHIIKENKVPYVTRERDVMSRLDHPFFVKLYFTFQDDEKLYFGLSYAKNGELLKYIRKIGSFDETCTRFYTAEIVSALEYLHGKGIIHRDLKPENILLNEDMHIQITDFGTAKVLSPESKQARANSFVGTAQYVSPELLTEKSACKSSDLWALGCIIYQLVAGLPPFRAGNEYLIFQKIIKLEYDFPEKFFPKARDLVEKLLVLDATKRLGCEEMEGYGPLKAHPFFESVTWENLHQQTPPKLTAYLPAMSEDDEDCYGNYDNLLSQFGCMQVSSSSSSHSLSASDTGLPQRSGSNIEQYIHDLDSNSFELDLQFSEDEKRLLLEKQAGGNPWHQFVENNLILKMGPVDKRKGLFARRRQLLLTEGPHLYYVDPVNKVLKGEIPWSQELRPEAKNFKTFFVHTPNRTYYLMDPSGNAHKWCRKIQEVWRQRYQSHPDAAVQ
The experiment in a line: Inhibition of PDPK1 by ELISA assay. Background: ELISA stands for enzyme-linked immunosorbent assay.

What is called IC50 is the midpoint of a concentration-inhibition curve. Low readings indicate greater potency in that assay, high ones weaker potency in that assay.

Take `COc1cc2ncc3c(N)nc(-c4ccoc4)cc3c2cc1OC`: the half-inhibitory concentration (IC50) was > 1 µM.

Compound `COc1cc2ncc3c(N)nc(-c4cncc(Br)c4)cc3c2cc1OC` yielded a half-inhibitory concentration (IC50) of 0.065 µM.

Regarding `COc1cc2ncc3c(N)nc(-c4cncc(Nc5ccccc5OCc5ccccc5)c4)cc3c2cc1OC`, the IC50 was > 1 µM. To `COc1cc2ncc3c(N)nc(-c4cncc(Nc5ccccc5F)c4)cc3c2cc1OC` belongs 0.03 µM; to `COc1cc2ncc3c(N)nc(-c4cccnc4)cc3c2cc1OC`, 0.035 µM; to `COc1cc2ncc3c(N)nc(-c4cncc(N)c4)cc3c2cc1OC`, 0.026 µM.

The compound `COc1cc2ncc3c(N)nc(-n4ccnc4)cc3c2cc1OC` registered an IC50 of 0.1 µM.

Consider `COc1cc2ncc3c(N)nc(-c4ccc(N)nc4)cc3c2cc1OC`, for which the half-inhibitory concentration (IC50) was > 1 µM. To `COc1cc2ncc3c(N)nc(-c4ccccn4)cc3c2cc1OC` belongs > 0.1 µM; to `COc1cc2c(cc1OCCCN1CCCCC1)ncc1c(N)nc(-c3cccnc3)cc12`, 0.144 µM; to `COc1cc2c(cc1OCc1ccccc1)ncc1c(N)nc(-c3cccnc3)cc12`, 0.146 µM.

These data come from ChEMBL document CHEMBL1155295, “Benzo[c][2,7]naphthyridines as inhibitors of PDK-1” (Bioorg Med Chem Lett, 2009).
